Entries after “also recorded” stand apart in the source; their conditions may differ. Marks after values point to notes of the source that are not given here. No end group written: not given here.

The text below walks through data of patent publication US20040162345A1, “Compounds with NEP/MP-inhibitory activity and uses thereof” (Solvay Pharmaceuticals GmbH, priority 2001, published 2004).

The target in assay [1] is T1, His6-tagged IGS5 ectodomain (Homo sapiens, UniProt Q495T6).
T1 construct: Enzyme: IGS-5 (sol hu)(his)6; or: His6-tagged IGS5 ectodomain;; made in house; host or cells: Sf9 insect cells, recombinant baculovirus IGBV73, purified from culture supernatant
T1 sequence (Q495T6 49-779 limits assumed): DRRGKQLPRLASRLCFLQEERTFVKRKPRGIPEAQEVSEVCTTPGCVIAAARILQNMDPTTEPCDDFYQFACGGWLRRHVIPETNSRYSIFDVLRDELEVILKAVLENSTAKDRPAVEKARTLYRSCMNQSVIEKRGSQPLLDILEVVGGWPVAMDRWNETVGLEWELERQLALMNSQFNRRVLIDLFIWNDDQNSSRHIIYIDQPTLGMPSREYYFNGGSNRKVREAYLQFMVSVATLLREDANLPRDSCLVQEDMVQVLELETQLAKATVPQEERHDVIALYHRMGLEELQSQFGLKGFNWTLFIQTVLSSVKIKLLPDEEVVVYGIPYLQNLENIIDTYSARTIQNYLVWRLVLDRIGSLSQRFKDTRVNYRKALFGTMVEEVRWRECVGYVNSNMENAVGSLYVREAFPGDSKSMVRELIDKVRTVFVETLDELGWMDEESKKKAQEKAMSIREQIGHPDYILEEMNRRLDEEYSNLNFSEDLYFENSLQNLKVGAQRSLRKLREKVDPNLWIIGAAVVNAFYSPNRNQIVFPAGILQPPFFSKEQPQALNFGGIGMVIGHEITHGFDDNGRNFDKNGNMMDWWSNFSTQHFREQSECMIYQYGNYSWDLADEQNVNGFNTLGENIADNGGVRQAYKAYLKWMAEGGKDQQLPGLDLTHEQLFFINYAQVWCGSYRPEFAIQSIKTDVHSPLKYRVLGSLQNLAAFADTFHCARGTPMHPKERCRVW
Nature of the assay: IGS5 enzyme inhibition assay (fluorescence-quenched big-ET-1 analog, HPLC). Type of assay: biochemical. The protocol:
(§1) The enzymatic activity of IGS5 polypeptides of the invention was tested with regard to the metabolism of biologically active peptides. In particular it was tested whether these IGS5 polypeptides may act on a variety of vasoactive peptides known in the state of the art e.g. such like atrial natriuretic peptide (ANP), bradykinin, big-endothelin (big-ET-1), endothelin (ET-1), substance P and angiotensin-1. In the context of the present invention in particular it was tested whether the IGS5 ectodomain, which is a novel human metalloprotease, hydrolyzes said vasoactive peptides. For comparison the assay was also performed for a known member of the metalloprotease family which was described earlier as soluble secreted endopeptidase (SEP) by Emoto et al. (J. Biol. Chem., Vol. 274 (1999): pp. 32469-32477). Furthermore, it was tested whether the activity of IGS5 to convert a big-ET-1 analog (the so-called 17 aa big-ET-1) may be inhibited by reference compounds that are used to determine the inhibition properties with regard to enzymes having ECE and/or NEP-characteristics.
Enzyme: IGS-5 (sol hu)(his)6; or: His6-tagged IGS5 ectodomain;
stock solution: 53 μg/ml in 20 mM HEPES pH 7.2, 5% glycerol, 0.005% Tween20, 100 mM NaCl, purity >99%; storage at 4° C.
working solution: stock solution diluted with assay buffer to 10 μg/ml.
Substrate: Mca-Asp-Ile-Ala-Trp-Phe-Dpa-[…]COOH;
Fluorescence-quenched big-ET-1 analog;
Assay buffer: 100 mM Tris pH 7.0, 250 mM NaCl.
All test compounds were dissolved in DMSO at 10 mM and were further diluted with assay buffer.
A quantity of 70 μl of the assay buffer, of 10 μl enzyme working solution and of 10 μl test compound solution were mixed in an Eppendorf vial and preincubated at 37° C. for 15 minutes. Then, 10 μl substrate stock solution was added and the reaction mixture was incubated at 37° C. for 60 minutes to allow for enzymatic hydrolysis. Subsequently the enzymatic reaction was terminated by heating at 95° C. for 5 minutes. After centrifugation (Heraeus Biofuge B, 3 min) the supernatant was subjected to HPLC analysis.
In order to separate the remaining substrate from the cleavage products reversed phase HPLC technique was used with a CC 125/4 Nucleosil 300/5 C18 RP column and a CC 8/4 Nucleosil 100/5 C18 precolumn (commercially available from Macherey-Nagel, Düren, Germany). Thus, 60 μl of the reaction samples obtained in Example 7b were injected into the HPLC, and the column was eluted at a flow rate of 1 ml/min by applying the following gradient and solutions: […]
The increasing fluorescence signal of the HPLC-peak of the peptide with the unquenched Mca-fluorophor after hydrolysis was taken as the basis for any calculation.
This signal was compared for the samples with and without inhibitor and % inhibition was calculated on basis of the respective peak areas.
% inhib=100*(1−Ainhib/Acontrol)
All samples were run in duplicate and mean values were used.
Furthermore, the potency of metalloprotease inhibitor compounds and reference compounds to suppress the conversion of big-ET to ET-1 was examined as described in this example 7, using a labeled fluorescent big-ET-1 analog. The procedures applied in the enzyme assays are described above in the examples 4 with regard to IGS5, in example 5 with regard to NEP, and in example 6 with regard to ECE.

The target in assay [2] is T2, SEP (soluble secreted endopeptidase) (Mus musculus, UniProt Q9JLI3).
T2 sequence (Q9JLI3 63-765 limits assumed): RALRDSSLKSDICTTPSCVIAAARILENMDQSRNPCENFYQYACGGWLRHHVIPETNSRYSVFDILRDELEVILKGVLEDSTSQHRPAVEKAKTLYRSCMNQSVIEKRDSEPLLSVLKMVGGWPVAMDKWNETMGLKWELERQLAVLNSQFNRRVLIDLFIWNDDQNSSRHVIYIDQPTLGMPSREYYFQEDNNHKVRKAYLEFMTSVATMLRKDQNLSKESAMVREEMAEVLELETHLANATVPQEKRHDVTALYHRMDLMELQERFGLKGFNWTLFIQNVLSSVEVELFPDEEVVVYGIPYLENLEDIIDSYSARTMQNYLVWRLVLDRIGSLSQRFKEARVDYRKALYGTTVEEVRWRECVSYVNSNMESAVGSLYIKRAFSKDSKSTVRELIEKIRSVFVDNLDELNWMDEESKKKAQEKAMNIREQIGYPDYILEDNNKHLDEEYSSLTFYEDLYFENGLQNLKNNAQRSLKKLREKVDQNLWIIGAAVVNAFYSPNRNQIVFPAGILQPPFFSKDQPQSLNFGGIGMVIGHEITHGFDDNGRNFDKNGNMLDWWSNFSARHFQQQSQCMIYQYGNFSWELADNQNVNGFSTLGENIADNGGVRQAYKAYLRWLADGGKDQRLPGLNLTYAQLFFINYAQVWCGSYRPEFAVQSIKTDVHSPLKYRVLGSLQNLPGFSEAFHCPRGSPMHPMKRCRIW
The following applies: 10 μg SEP; 0.5 μM substrate; 12 h, 37° C.; cited from earlier work.

For assay [3], the target named is T3, IGS5 polypeptide (Homo sapiens, UniProt Q495T6).
T3 construct: Enzyme: IGS-5 (sol hu)(his)6; or: His6-tagged IGS5 ectodomain;; made in house; host or cells: Sf9 insect cells, recombinant baculovirus IGBV73, purified from culture supernatant
T3 sequence (Q495T6 49-779 limits assumed): T1 sequence (Q495T6 49-779 limits assumed)
Nature of the assay: Hydrolysis of vasoactive peptides by IGS5 polypeptides. It counts as biochemical. The following applies: 0.5 μM substrate, 2 h, 37° C. As to the method: as §1

The subject of assay [4] is patients with congestive heart failure. In words: Open, baseline controlled pilot trial in patients with congestive heart failure. It counts as in vivo, human. The following applies: following compound Ia-2 administration; p<0.001. The protocol: To proof the concept of clinical efficacy and safety of compound Ia-2 in man, 6 clinical trials were conducted in healthy volunteers and 2 proof of concept trials were conducted in patients: One randomized, placebo-controlled double-blind trial in patients with hypertension (N=191) and one open, baseline controlled pilot trial in patients with congestive heart failure (N=29). […] In the Intent-to-treat patient population (ITT), office diastolic blood pressure versus placebo decreased by −6.9 mmHg (last value under treatment; p<0.001) and office systolic blood pressure versus placebo decreased by −9.2 mmHg (last value under treatment; p=0.003) at the highest dose investigated (200 mg bid).

Take `Cc1nn(-c2ccccc2)c(NC(=O)NS(=O)(=O)c2ccc(Cl)cc2)c1C#N.[Na]`: in assay [1] (monosodium salt), the “inhibition of IGS5 activity (in words)” value is on record as “no inhibition of IGS5; also recorded: do not affect the activity of IGS5”.

As to `CC[C@H](C)[C@@H]1NC(=O)[C@H](CCCNC(=N)N)NC(=O)[C@H](CC(=O)O)NC(=O)[C@H](CCSC)NC(=O)[C@H](CCCNC(=N)N)NC(=O)CNC(=O)CNC(=O)[C@H](Cc2ccccc2)NC(=O)[C@@H](NC(=O)[C@H](CO)NC(=O)[C@H](CO)NC(=O)[C@H](CCCNC(=N)N)NC(=O)[C@H](CCCNC(=N)N)NC(=O)[C@H](CC(C)C)NC(=O)[C@@H](N)CO)CSSC[C@@H](C(=O)N[C@@H](CC(N)=O)C(=O)N[C@@H](CO)C(=O)N[C@@H](Cc2ccccc2)C(=O)N[C@@H](CCCNC(=N)N)C(=O)N[C@@H](Cc2ccc(O)cc2)C(=O)O)NC(=O)CNC(=O)[C@H](CC(C)C)NC(=O)CNC(=O)[C@H](CO)NC(=O)[C@H](CCC(N)=O)NC(=O)[C@H](C)NC(=O)CNC1=O` [ANP], the “% Hydrolysis by SEP (Emoto et al.)” value in assay [2] was >95%. Further, the “% Hydrolysis by IGS5 Polypeptide” value was determined as 5% in assay [3] (100 μg IGS5 polypeptide) and 80% in assay [3] (500 μg IGS5 polypeptide). Take `CC[C@H](C)[C@H](NC(=O)[C@H](CC(=O)O)NC(=O)[C@H](CC(C)C)NC(=O)[C@H](Cc1c[nH]cn1)NC(=O)[C@@H]1CSSC[C@H](N)C(=O)N[C@@H](CO)C(=O)N[C@H]2CSSC[C@H](NC(=O)[C@H](CCC(=O)O)NC(=O)[C@H](CCCCN)NC(=O)[C@H](CC(=O)O)NC(=O)[C@H](CCSC)NC(=O)[C@H](CC(C)C)NC(=O)[C@H](CO)NC(=O)[C@H](CO)NC2=O)C(=O)N[C@@H](C(C)C)C(=O)N[C@@H](Cc2ccc(O)cc2)C(=O)N[C@@H](Cc2ccccc2)C(=O)N1)C(=O)N[C@H](C(=O)N[C@@H](Cc1c[nH]c2ccccc12)C(=O)O)[C@@H](C)CC` [ET-1]: the “% Hydrolysis by SEP (Emoto et al.)” value in assay [2] was 92%. Besides, the “% Hydrolysis by IGS5 Polypeptide” value in assay [3] (100 μg IGS5 polypeptide) was <30%. On to `O=C(O)CN1C(=O)[C@@H](NC(=O)C2(C[C@@H](CCc3ccccc3)C(=O)O)CCCC2)CCc2ccccc21` [compound Ia-1, (3S,2′R)-3-{1-[2′-carboxy-4′-phenylbutyl]-cyclopentane-1-carbonylamino}-2,3,4,5-tetrahydro-2-oxo-1H-1-benzazepine-1-acetic acid], for which the “correlation between log plasma concentrations of compound Ia-1 and plasma levels of big-ET” value in assay [4] was “significant positive correlation”. Take “Angiotensin 1: vasoactive peptide tested as substrate (DRVYIHPFHL; Angiotensin-1; UniProt P01019 25-34, looked up)”: the “% Hydrolysis by SEP (Emoto et al.)” value in assay [2] is listed as >95%. For the same compound, the “% Hydrolysis by IGS5 Polypeptide” value in assay [3] (100 μg IGS5 polypeptide) was 15*** %.

“Mca-Asp-Ile-Ala-Trp-Phe-Dpa-Thr-Pro-Glu-His-Val-Val-Pro-Tyr-Gly-Leu-Gly-COOH [17 aa big-ET-1]”: the “% Hydrolysis by IGS5 Polypeptide” value in assay [3] (100 μg IGS5 polypeptide) is 41%.

With RPPGFSPFR [Bradykinin], the entries for the “% Hydrolysis by IGS5 Polypeptide” value in assay [3] (10 μg IGS5 polypeptide) and in assay [3] (100 μg IGS5 polypeptide) were 62% and 100%, respectively. Consider “Substance P: vasoactive peptide tested as substrate”, for which, in assay [2], the “% Hydrolysis by SEP (Emoto et al.)” value was >95%. Also, the “% Hydrolysis by IGS5 Polypeptide” value in assay [3] (100 μg IGS5 polypeptide) is given as 100%. Broadly, the IC50 is the concentration needed to halve the response being measured. Regarding “tert-Butyl (3S)-3-(1-benzylethylphosphonomethyl-cyclopentane-1-carbonylamino)-2,3,4,5-tetrahydro-2-oxo-1H-1-benzazepine-1-acetate [compound Ib-8]”, in assay [1] (conversion of labeled fluorescent big-ET-1 analog), the IC50 was found to be 2.9 nM.
